Data from ChEMBL document CHEMBL1201862, “PubChem BioAssay data set” (2004).
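Following 48 hours of exposure in 96-well plates, responses at five concentrations were used to interpolate endpoints linearly. GI50: concentration for 50% inhibition of growth.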 The source made the active and inactive calls. Rule as the data show it: active = GI50 up to about 1.1 µM and inactive = higher.

Tests used:
Assay in all cases: NCI anticancer screen, dose series, 48 h
DLD-1 = tested on: DLD-1
NCI-H460 = tested on: NCI-H460
Malme-3M = tested on: Malme-3M
HL-60 = tested on: HL-60
SF-295 = tested on: SF-295
OVCAR-8 = tested on: OVCAR-8
OVCAR-4 = tested on: OVCAR-4
IGROV-1 = tested on: IGROV-1
SNB-19 = tested on: SNB-19
M14 = tested on: M14
A549 = tested on: A549
NCI-H23 = tested on: NCI-H23
KM12 = tested on: KM12
ACHN = tested on: ACHN
OVCAR-3 = tested on: OVCAR-3
U-251 = tested on: U-251
RPMI-8226 = tested on: RPMI-8226
Hs-578T = tested on: Hs-578T
PC-3 = tested on: PC-3
MCF7 = tested on: MCF7

Measured: GI50

CCOC(=O)C1=C(Nc2ccccc2)SC/C1=N\NC(=O)Cc1ccccc1
inactive: DLD-1 > 100 µM | NCI-H460 > 100 µM | Malme-3M > 100 µM | HL-60 > 100 µM | SF-295 > 100 µM | OVCAR-8 > 100 µM | OVCAR-4 > 100 µM | IGROV-1 > 100 µM | SNB-19 > 100 µM | M14 > 100 µM | A549 > 100 µM | NCI-H23 > 100 µM | KM12 > 100 µM | ACHN > 100 µM | OVCAR-3 > 100 µM | U-251 > 100 µM

CCCCCCCCCCCC(=O)OCC1OC(OC)C(NC(=O)N(CCCl)N=O)C(O)C1O (centres undefined)
inactive: DLD-1 17.5 µM | NCI-H460 5.22 µM | Malme-3M 12.2 µM | SF-295 8.24 µM | OVCAR-8 19.3 µM | OVCAR-4 17.8 µM | IGROV-1 29.7 µM | SNB-19 10.1 µM | M14 11.1 µM | A549 12.5 µM | NCI-H23 > 10 µM | KM12 17.3 µM | ACHN 10.6 µM | OVCAR-3 16.3 µM | RPMI-8226 7.5 µM | U-251 7.06 µM

CCOC(=O)NC(=O)c1cn(CC(=O)NCC(=O)NCC(=O)NCCCN2CCN(CCCNC(=O)CNC(=O)CNC(=O)Cn3cc(C(=O)NC(=O)OCC)c(=O)[nH]c3=O)CC2)c(=O)[nH]c1=O
inactive: DLD-1 > 100 µM | NCI-H460 > 100 µM | Malme-3M > 100 µM | HL-60 > 100 µM | SF-295 > 100 µM | OVCAR-8 > 100 µM | IGROV-1 > 100 µM | SNB-19 > 100 µM | M14 > 100 µM | A549 > 100 µM | NCI-H23 > 100 µM | KM12 > 100 µM | ACHN > 100 µM | OVCAR-3 > 100 µM | U-251 > 100 µM

COC(=O)CCCCCOS(=O)(=O)c1ccc(C)cc1
inactive: DLD-1 > 100 µM | NCI-H460 > 100 µM | Malme-3M > 100 µM | HL-60 > 100 µM | SF-295 > 100 µM | OVCAR-8 > 100 µM | IGROV-1 > 100 µM | SNB-19 > 100 µM | M14 > 100 µM | A549 > 100 µM | NCI-H23 > 100 µM | KM12 > 100 µM | ACHN > 100 µM | OVCAR-3 > 100 µM | U-251 > 100 µM

O=C1CCN2CCC(=O)c3c2c(cc2ccccc32)N1
inactive: DLD-1 > 100 µM | NCI-H460 > 100 µM | Malme-3M > 100 µM | SF-295 > 100 µM | OVCAR-8 > 100 µM | IGROV-1 > 100 µM | SNB-19 > 100 µM | M14 > 100 µM | A549 > 100 µM | KM12 > 100 µM | ACHN > 100 µM | OVCAR-3 > 100 µM | RPMI-8226 > 100 µM | U-251 > 100 µM

O=C1CCC2(O)c3ccccc3C2Cc2ccccc21 (centres undefined)
inactive: DLD-1 > 100 µM | NCI-H460 > 100 µM | Malme-3M > 100 µM | HL-60 > 100 µM | SF-295 > 100 µM | OVCAR-8 > 100 µM | IGROV-1 > 100 µM | SNB-19 > 100 µM | NCI-H23 > 100 µM | KM12 > 100 µM | ACHN > 100 µM | OVCAR-3 > 100 µM | RPMI-8226 > 100 µM | U-251 > 100 µM

CCOC(=O)[C@H]1Nc2ccc([N+](=O)[O-])cc2C2c3ccccc3CC21 (some centres undefined)
inactive: DLD-1 25.4 µM | NCI-H460 18.8 µM | Malme-3M 19 µM | SF-295 11.2 µM | OVCAR-8 21.4 µM | OVCAR-4 18.4 µM | IGROV-1 28 µM | SNB-19 28.4 µM | M14 15.2 µM | A549 25.9 µM | NCI-H23 15.3 µM | KM12 29.9 µM | ACHN 23.6 µM | OVCAR-3 9.84 µM | RPMI-8226 16.9 µM | U-251 16.1 µM

CCOC(=O)N1CCC2(CC1)CC(=O)N(Nc1ccccc1)C2=O
inactive: NCI-H460 94.4 µM | Malme-3M > 100 µM | HL-60 28.9 µM | SF-295 40.3 µM | OVCAR-8 > 100 µM | OVCAR-4 > 100 µM | IGROV-1 79.8 µM | Hs-578T 41.1 µM | PC-3 40.6 µM | SNB-19 > 100 µM | M14 > 100 µM | A549 > 100 µM | NCI-H23 > 100 µM | KM12 92.7 µM | MCF7 90.6 µM | ACHN 9.71 µM | OVCAR-3 > 100 µM | RPMI-8226 > 100 µM | U-251 > 100 µM

S=C1CC(c2ccccc2)Sc2ccc(Cl)cc2N1 (centres undefined)
inactive: NCI-H460 21.2 µM | Malme-3M > 100 µM | HL-60 24.4 µM | SF-295 26.9 µM | OVCAR-8 43.4 µM | OVCAR-4 54.5 µM | IGROV-1 90.8 µM | Hs-578T 16.4 µM | PC-3 4.56 µM | SNB-19 34 µM | M14 37.4 µM | A549 34.8 µM | NCI-H23 30.8 µM | KM12 56.6 µM | MCF7 36.2 µM | ACHN 58.1 µM | OVCAR-3 46.5 µM | RPMI-8226 90.4 µM | U-251 16.5 µM
